Measured values as given in US8586573B2, “N-(Aminoheteroaryl)-1H-indole-2-carboxamide derivatives, and preparation and therapeutic application thereof” (Sanofi, priority 2006, dated 2013).

| SMILES | melting point [°C] |
| --- | --- |
| O=C(Nc1ccc(N2CC3CCC3C2)nc1)c1cc2cc(F)ccc2n1Cc1cccc(F)c1 (stereo not shown) [Compound 22, N-[6-(3-azabicyclo[3.2.0]hept-3-yl)pyridin-3-yl]-5-fluoro-1-(3-fluorobenzyl)-1H-indole-2-carboxamide] | 163 to 165 |
| O=C(Nc1ccc(N2CC(O)C2)nc1)c1cc2cc(F)ccc2n1Cc1cccc(F)c1 [Compound 24, N-[6-(3-hydroxyazetidin-1-yl)pyridin-3-yl]-5-fluoro-1-(3-fluorobenzyl)-1H-indole-2-carboxamide] | 199 to 200 |
| O=C(Nc1ccc(N2CCC2)nc1)c1cc2cc(C(F)(F)F)ccc2n1Cc1cccc(F)c1 [Compound 25, N-[6-(azetidin-1-yl)pyridin-3-yl]-5-trifluoromethyl-1-(3-fluorobenzyl)-1H-indole-2-carboxamide] | 222 to 224 |
| O=C(Nc1ccc(N2CCC2)nc1)c1cc2cc(F)ccc2n1Cc1ccncc1 [Compound 26, N-[6-(azetidin-1-yl)pyridin-3-yl]-1-[(pyridin-4-yl)methyl]-5-fluoro-1H-indole-2-carboxamide] | 212 to 214 |
| O=C(Nc1ccc(N2CC(O)C2)nc1)c1cc2cc(C(F)(F)F)ccc2n1Cc1cccc(F)c1 [Compound 29, N-[6-(3-hydroxyazetidin-1-yl)pyridin-3-yl]-1-(3-fluorobenzyl)-5-trifluoromethyl-1H-indole-2-carboxamide] | 194 to 196 |
| Cc1cc(C)c2cc(C(=O)Nc3ccc(N4CCC4)nc3)n(Cc3cccc(F)c3)c2c1 [Compound 32, N-[6-(azetidin-1-yl)pyridin-3-yl]-4,6-dimethyl-1-(3-fluorobenzyl)-1H-indole-2-carboxamide] | 234 to 236 |
| CC(C)(C)c1ccc2cc(C(=O)Nc3ccc(N4CCC4)nc3)n(Cc3cccc(F)c3)c2c1 [Compound 33, N-[6-(azetidin-1-yl)pyridin-3-yl]-6-tert-butyl-1-(3-fluorobenzyl)-1H-indole-2-carboxamide] | 204 to 206 |
| CC(C)Oc1ccc2cc(C(=O)Nc3ccc(N4CCC4)nc3)n(Cc3cccc(F)c3)c2c1 [Compound 34, N-[6-(azetidin-1-yl)pyridin-3-yl]-6-isopropyloxy-1-(3-fluorobenzyl)-1H-indole-2-carboxamide] | 198 to 200 |
| CS(=O)(=O)c1ccc2c(c1)cc(C(=O)Nc1ccc(N3CCC3)nc1)n2Cc1cccc(F)c1 [Compound 35, N-[6-(azetidin-1-yl)pyridin-3-yl]-5-methylsulphonyl-1-(3-fluorobenzyl)-1H-indole-2-carboxamide] | 258 to 260 |
| CN(C)c1ccc2cc(C(=O)Nc3ccc(N4CCC4)nc3)n(Cc3cccc(F)c3)c2c1 [Compound 36, N-[6-(azetidin-1-yl)pyridin-3-yl]-6-dimethylamino-1-(3-fluorobenzyl)-1H-indole-2-carboxamide] | 256 to 258 |
| CSc1ccc2cc(C(=O)Nc3ccc(N4CCC4)nc3)n(Cc3cccc(F)c3)c2c1 [Compound 37, N-[6-(azetidin-1-yl)pyridin-3-yl]-6-methylthio-1-(3-fluorobenzyl)-1H-indole-2-carboxamide] | 206 to 208 |
| O=C(Nc1ccc(N2CCC2)nc1)c1cc2c(Cl)cccc2n1Cc1cccc(F)c1 [Compound 41, N-[6-(azetidin-1-yl)pyridin-3-yl]-4-chloro-1-(3-fluorobenzyl)-1H-indole-2-carboxamide] | 226 to 228 |
| O=C(Nc1ccc(N2CCC2)nc1)c1cc2ccc(Cl)cc2n1Cc1cccc(F)c1 [Compound 42, N-[6-(azetidin-1-yl)pyridin-3-yl]-6-chloro-1-(3-fluorobenzyl)-1H-indole-2-carboxamide] | 218 to 220 |
| O=C(Nc1ccc(N2CCC2)nc1)c1cc2cc(Cl)ccc2n1Cc1cccc(F)c1 [Compound 43, N-[6-(azetidin-1-yl)pyridin-3-yl]-5-chloro-1-(3-fluorobenzyl)-1H-indole-2-carboxamide] | 226 to 228 |
| O=C(Nc1ccc(N2CCC2)nc1)c1cc2ccccc2n1Cc1cccc(F)c1 [Compound 44, N-[6-(azetidin-1-yl)pyridin-3-yl]-1-(3-fluorobenzyl)-1H-indole-2-carboxamide] | 328 to 330 |
| Cc1cccc2c1cc(C(=O)Nc1ccc(N3CCC3)nc1)n2Cc1cccc(F)c1 [Compound 45, N-[6-(azetidin-1-yl)pyridin-3-yl]-4-methyl-1-(3-fluorobenzyl)-1H-indole-2-carboxamide] | 246 to 248 |
| Cc1ccc2cc(C(=O)Nc3ccc(N4CCC4)nc3)n(Cc3cccc(F)c3)c2c1 [Compound 46, N-[6-(azetidin-1-yl)pyridin-3-yl]-6-methyl-1-(3-fluorobenzyl)-1H-indole-2-carboxamide] | 228 to 230 |
| CC(C)(C)c1ccc2c(c1)cc(C(=O)Nc1ccc(N3CCC3)nc1)n2Cc1cccc(F)c1 [Compound 49, N-[6-(azetidin-1-yl)pyridin-3-yl]-5-tert-butyl-1-(3-fluorobenzyl)-1H-indole-2-carboxamide] | 212 to 214 |
| CC(C)c1ccc2cc(C(=O)Nc3ccc(N4CCC4)nc3)n(Cc3cccc(F)c3)c2c1 [Compound 51, N-[6-(azetidin-1-yl)pyridin-3-yl]-6-isopropyl-1-(3-fluorobenzyl)-1H-indole-2-carboxamide] | 184 to 186 |
| O=C(Nc1cnc(N2CCCC2)cc1C(F)(F)F)c1cc2cc(F)ccc2n1Cc1cccc(F)c1 [Compound 53, N-[6-(pyrrolidin-1-yl)-4-(trifluoromethyl)pyridin-3-yl]-5-fluoro-1-(3-fluorobenzyl)-1H-indole-2-carboxamide] | 170 to 171 |

Further lines, results first:

| melting point [°C] | SMILES |
| --- | --- |
| 225 to 226 | COc1cc(N2CCCC2)ncc1NC(=O)c1cc2cc(F)ccc2n1Cc1ccncc1 [Compound 18, N-[4-methoxy-6-(pyrrolidin-1-yl)pyridin-3-yl]-5-fluoro-1-[(pyridin-4-yl)methyl]-1H-indole-2-carboxamide] |
| 213 to 215 | Cc1cc(Cn2c(C(=O)Nc3ccc(N4CCCC4)nc3)cc3cc(F)ccc32)ccn1 [Compound 19, N-[6-(pyrrolidin-1-yl)pyridin-3-yl]-5-fluoro-1-[(2-methylpyridin-4-yl)methyl]-1H-indole-2-carboxamide] |
| 253 to 255 | O=C(Nc1ccc(N2CC(O)C2)nc1)c1cc2ccc(C(F)(F)F)cc2n1Cc1cccc(F)c1 [Compound 30, N-[6-(3-hydroxyazetidin-1-yl)pyridin-3-yl]-1-(3-fluorobenzyl)-6-trifluoromethyl-1H-indole-2-carboxamide] |
| 208 to 210 | O=C(Nc1ccc(N2CCC2)nc1)c1cc2cc(F)ccc2n1Cc1ccccc1 [Compound 31, N-[6-(azetidin-1-yl)pyridin-3-yl]-5-fluoro-1-(benzyl)-1H-indole-2-carboxamide] |
| 214 to 216 | O=C(Nc1ccc(N2CCC2)nc1)c1cc2c(F)cccc2n1Cc1cccc(F)c1 [Compound 38, N-[6-(azetidin-1-yl)pyridin-3-yl]-4-fluoro-1-(3-fluorobenzyl)-1H-indole-2-carboxamide] |
| 244 to 246 | O=C(Nc1ccc(N2CCC2)nc1)c1cc2cccc(F)c2n1Cc1cccc(F)c1 [Compound 39, N-[6-(azetidin-1-yl)pyridin-3-yl]-7-fluoro-1-(3-fluorobenzyl)-1H-indole-2-carboxamide] |
| 210 to 212 | O=C(Nc1ccc(N2CCC2)nc1)c1cc2ccc(F)cc2n1Cc1cccc(F)c1 [Compound 40, N-[6-(azetidin-1-yl)pyridin-3-yl]-6-fluoro-1-(3-fluorobenzyl)-1H-indole-2-carboxamide] |
| 236 to 238 | Cc1ccc2c(c1)cc(C(=O)Nc1ccc(N3CCC3)nc1)n2Cc1cccc(F)c1 [Compound 47, N-[6-(azetidin-1-yl)pyridin-3-yl]-5-methyl-1-(3-fluorobenzyl)-1H-indole-2-carboxamide] |
| 204 to 206 | CC(C)c1ccc2c(c1)cc(C(=O)Nc1ccc(N3CCC3)nc1)n2Cc1cccc(F)c1 [Compound 48, N-[6-(azetidin-1-yl)pyridin-3-yl]-5-isopropyl-1-(3-fluorobenzyl)-1H-indole-2-carboxamide] |
| 196 to 198 | CCc1ccc2cc(C(=O)Nc3ccc(N4CCC4)nc3)n(Cc3cccc(F)c3)c2c1 [Compound 50, N-[6-(azetidin-1-yl)pyridin-3-yl]-6-ethyl-1-(3-fluorobenzyl)-1H-indole-2-carboxamide] |
| 220 to 222 | O=C(Nc1ccc(N2CCC2)nc1)c1cc2ccc(C(F)(F)F)cc2n1Cc1cccc(F)c1 [Compound 52, N-[6-(azetidin-1-yl)pyridin-3-yl]-6-trifluoromethyl-1-(3-fluorobenzyl)-1H-indole-2-carboxamide] |
